Laboratory results published in patent US6962907B2, “Neurologically-active compounds” (The University of Sydney, priority 2001, dated 2005).
Like-named read-outs stand apart in the source and are kept apart here. Values belong to the compound of their own block, whether it stands above or below them.

How the values were obtained:
GABAC receptors = details: Woodward et al, 1993; read-out: KB as antagonist at GABAC receptors; cited from earlier work
GABAC (ρ1) receptor = GABAC (ρ1) receptor (Homo sapiens, UniProt P24046); assay: Two-electrode voltage clamp at GABAC (ρ1) receptors expressed in Xenopus oocytes; details: for current response to GABA alone: FIG. 11(a)
Method: (§1) For example, ρ1 GABAC receptor subunit subcloned in ρ1 cDNA 1.1 and is linearised using the restriction enzyme Xbal . Following this, the mRNA is then prepared from the linearised ρ1 subunit using T7 polymerase. This genetic material is then injected into the Xenopus laevis oocytes and incubated for 2 to 9 days, to allow for the process of translation to occur. After this process the Xenopus laevis oocytes show expression of the receptor and ion channel assembly on the cell surface.
(§2) Female Xenopus laevis frogs were anaesthetised with tricaine (850 mg/500 mL) and a lobe of their ovaries surgically removed. […] Stage V-VI oocytes were collected and stored in Frog Ringer (ND96) wash solution (96 mM NaCI, 2 mM KCI, 1 mM MgCl2.6H20, 1.8 mM CaCl2.2H2O, 5 mM HEPES (hemi-Na salt), pH 7.5) supplemented with 2.5 mM sodium pyruvate, 0.5 mM theophylline, and 50 μg/mL gentamicin.
(§3) Micropipettes were prepared by the microprocessor-controlled vertical pipette puller (World Precision Instruments) and bevelled to a tip diameter of 10-20 μm. The micropipettes were filled with mineral oil to ensure the mRNA solution would be drawn up into the micropipette under negative pressure. A Nanoject injector (World Precision Instruments) was used to deliver GABAA, GABAB or GABAC mRNA (50 nL) into the cytoplasm of the Xenopus oocytes. After injection with the appropriate mRNA, the oocytes were placed in a storage solution of ND96 wash solution supplemented with 2.5 mM sodium pyruvate, 0.5 mM theophylline and gentamicin (50 μg/mL) and stored on a slow speed rotator in an 18° C. controlled temperature incubator (Contherm, Petone, NZ). The storage solution was changed daily (or twice daily) and dead or unhealthy oocytes were removed to prolong the health of the remaining cells.
(§4) Prior to recording, 100 mM stock solutions of (±)-cis- and (±)-trans-3-ACPBPA were prepared using autoclaved MilliQ water and stored at −20° C. […] At the time the experiments were to be recorded, the stock solutions were diluted with ND96 wash solution for testing on GABAA and GABAC receptors or 45 mM K^+ solution (45 mM NaCI, 45 mM KCI, 1 mM MgCl2.6H2O, 1.8 mM CaCl2.2H2O, 5 mM HEPES (hemi-Na salt), pH 7.5 at 25° C.) for testing on GABAB receptors.
(§5) After 2 to 9 days of incubation, receptor activity using two-electrode voltage clamp recordings were acquired by means of a Geneclamp 500 amplifier (Axon Instruments Inc., Foster City, Calif., USA), a MacLab 2e recorder (AD Instruments, Sydney, Australia) and Chart™ v.3.6.3 for Macintosh (AD Instruments) to digitise the current and voltage signals.
(§6) The recording microelectrodes were prepared from borosilicate glass capillaries (1.2 mm i.d.×0.94 mm o.d.; Clark Electromedical Instruments, Pangbourne, UK) using a micropipette puller (World Precision Instruments). The microelectrodes (tip resistances 0.5-1.5 MΩ) were filled with 3 M potassium chloride and a microscope was used to direct the insertion of these microelectrodes into the oocyte positioned in the cell bath. The membrane potential of the oocyte was then voltage-clamped at −60 mV.
(§7) Oocytes with an adequate level of receptor expression (with maximal currents (I)≧50 nA) were used for subsequent recording. […] Oocytes were washed for 3-4 minutes between applications of drug doses to ensure for receptor recovery.

GABAC (ρ2) receptor = GABAC (ρ2) receptor (Homo sapiens, UniProt P28476); assay: Two-electrode voltage clamp at GABAC (ρ2) receptors expressed in Xenopus oocytes; details: FIG. 11(b)
Method: as §1, §2, §3, §4, §5, §6, §7

GABAC (ρ3) receptor = molecular target: T1, GABAC (ρ3) receptor (Rattus norvegicus, UniProt P50573); assay: Two-electrode voltage clamp at GABAC (ρ3) receptors expressed in Xenopus oocytes; details: GABA 10 μM; FIG. 11(c)
T1 sequence (P50573 16-464): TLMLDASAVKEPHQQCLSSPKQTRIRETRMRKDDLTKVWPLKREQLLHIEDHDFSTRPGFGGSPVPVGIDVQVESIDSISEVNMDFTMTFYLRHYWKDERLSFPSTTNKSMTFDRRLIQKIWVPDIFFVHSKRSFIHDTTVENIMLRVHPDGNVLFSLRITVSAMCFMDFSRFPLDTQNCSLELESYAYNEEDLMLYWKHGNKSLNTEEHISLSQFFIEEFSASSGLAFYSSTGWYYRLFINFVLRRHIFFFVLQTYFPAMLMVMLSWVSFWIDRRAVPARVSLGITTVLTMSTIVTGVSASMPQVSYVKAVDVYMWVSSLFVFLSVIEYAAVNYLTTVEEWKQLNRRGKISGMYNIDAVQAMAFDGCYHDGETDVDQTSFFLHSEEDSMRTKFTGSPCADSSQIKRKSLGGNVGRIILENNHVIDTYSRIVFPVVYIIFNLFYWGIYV
Method: as §1, §2, §3, §4, §5, §6, §7

GABAA (α2β2γ2s) receptor = GABAA (α2β2γ2s) receptor (Homo sapiens, UniProt P47869+P47870); assay: Two-electrode voltage clamp at GABAA (α2β2γ2s) receptors expressed in Xenopus oocytes; details: oocyte clamped at −60 mV, FIG. 9
Method: as §1, §2, §3, §4, §5, §6, §7

GABAC receptor [1] = molecular target: T2, GABAC receptor (Homo sapiens, UniProt P24046); details: cited from earlier work
GABAA receptors [2] = details: TPMPA 300 μM; cited from earlier work
GABAB receptor [3] = details: dose of 500 μM; cited from earlier work
GABAA receptors [4] = assay: Activity of ACPMPA isomers at GABAA receptors (subtype not stated), as for ACPBPA; type: cell-based; details: for reduction of the current produced by GABA (10 μM): 300 μM compound
GABAC receptor [5] = molecular target: T2, GABAC receptor; assay: Activity of ACPMPA isomers as GABAC receptor antagonists (subtype not stated), as for ACPBPA; type: cell-based; set-up: expressed in transfected cells; details: for Kb: read-out: KB as GABAC receptor antagonist
GABAB receptor [6] = molecular target: GABAB receptor (Homo sapiens, UniProt Q9UBS5); assay: Two-electrode voltage clamp at GABAB receptors (subtype not stated) expressed in Xenopus oocytes; details: for EC50: read-out: EC50 as GABAB receptor agonist
Chain of GABAB receptor (Homo sapiens, UniProt Q9UBS5) (Q9UBS5 20-961): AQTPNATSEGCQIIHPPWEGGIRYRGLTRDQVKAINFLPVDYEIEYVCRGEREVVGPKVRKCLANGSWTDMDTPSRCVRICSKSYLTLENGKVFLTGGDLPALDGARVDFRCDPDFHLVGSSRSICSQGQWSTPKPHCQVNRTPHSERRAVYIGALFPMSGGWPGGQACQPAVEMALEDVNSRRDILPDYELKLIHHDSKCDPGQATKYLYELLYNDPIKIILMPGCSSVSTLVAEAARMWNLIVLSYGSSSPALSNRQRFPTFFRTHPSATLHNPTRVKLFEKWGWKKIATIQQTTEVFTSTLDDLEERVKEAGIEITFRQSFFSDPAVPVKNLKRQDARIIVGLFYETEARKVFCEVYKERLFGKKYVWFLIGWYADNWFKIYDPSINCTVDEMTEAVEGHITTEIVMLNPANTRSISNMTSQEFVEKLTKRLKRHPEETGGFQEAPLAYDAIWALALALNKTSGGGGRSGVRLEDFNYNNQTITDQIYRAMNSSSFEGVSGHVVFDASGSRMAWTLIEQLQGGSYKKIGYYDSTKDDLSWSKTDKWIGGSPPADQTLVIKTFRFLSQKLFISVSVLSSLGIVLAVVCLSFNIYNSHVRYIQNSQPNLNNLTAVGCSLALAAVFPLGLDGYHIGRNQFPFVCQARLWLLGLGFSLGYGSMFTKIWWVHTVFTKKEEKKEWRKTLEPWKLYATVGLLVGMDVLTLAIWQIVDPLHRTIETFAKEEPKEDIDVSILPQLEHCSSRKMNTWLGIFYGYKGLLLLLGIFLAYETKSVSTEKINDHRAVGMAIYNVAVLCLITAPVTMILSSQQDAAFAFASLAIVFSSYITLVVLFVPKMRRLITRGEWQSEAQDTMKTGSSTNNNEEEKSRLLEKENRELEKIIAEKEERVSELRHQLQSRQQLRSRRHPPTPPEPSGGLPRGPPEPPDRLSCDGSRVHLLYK
Chain of GABAB receptor (Homo sapiens, UniProt Q9UBS5) (O75899 42-941 partner): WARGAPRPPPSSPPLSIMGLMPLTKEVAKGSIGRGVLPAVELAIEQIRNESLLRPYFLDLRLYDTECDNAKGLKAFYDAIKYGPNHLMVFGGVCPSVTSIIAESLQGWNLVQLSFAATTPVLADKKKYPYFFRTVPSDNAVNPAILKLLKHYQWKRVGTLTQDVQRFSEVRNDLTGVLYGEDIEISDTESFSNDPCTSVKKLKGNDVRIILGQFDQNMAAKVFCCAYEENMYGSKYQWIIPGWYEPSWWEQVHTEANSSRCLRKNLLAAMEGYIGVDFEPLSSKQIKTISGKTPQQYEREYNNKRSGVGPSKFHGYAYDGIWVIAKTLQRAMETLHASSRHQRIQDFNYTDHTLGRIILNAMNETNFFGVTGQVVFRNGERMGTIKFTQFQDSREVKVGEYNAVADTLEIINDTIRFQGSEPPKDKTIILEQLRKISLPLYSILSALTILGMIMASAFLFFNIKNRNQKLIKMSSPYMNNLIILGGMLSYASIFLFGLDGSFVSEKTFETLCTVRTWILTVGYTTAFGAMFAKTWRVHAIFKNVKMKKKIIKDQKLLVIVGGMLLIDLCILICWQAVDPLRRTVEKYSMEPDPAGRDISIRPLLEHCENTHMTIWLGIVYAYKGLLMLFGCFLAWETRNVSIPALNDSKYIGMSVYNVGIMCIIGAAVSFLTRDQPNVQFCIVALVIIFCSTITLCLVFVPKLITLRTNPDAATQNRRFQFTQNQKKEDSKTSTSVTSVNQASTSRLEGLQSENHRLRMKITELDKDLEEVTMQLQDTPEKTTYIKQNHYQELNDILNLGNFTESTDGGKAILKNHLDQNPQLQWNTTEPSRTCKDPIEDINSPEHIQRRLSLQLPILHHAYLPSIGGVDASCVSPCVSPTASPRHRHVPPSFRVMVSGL

Chain of GABAC (ρ1) receptor (P24046 22-479): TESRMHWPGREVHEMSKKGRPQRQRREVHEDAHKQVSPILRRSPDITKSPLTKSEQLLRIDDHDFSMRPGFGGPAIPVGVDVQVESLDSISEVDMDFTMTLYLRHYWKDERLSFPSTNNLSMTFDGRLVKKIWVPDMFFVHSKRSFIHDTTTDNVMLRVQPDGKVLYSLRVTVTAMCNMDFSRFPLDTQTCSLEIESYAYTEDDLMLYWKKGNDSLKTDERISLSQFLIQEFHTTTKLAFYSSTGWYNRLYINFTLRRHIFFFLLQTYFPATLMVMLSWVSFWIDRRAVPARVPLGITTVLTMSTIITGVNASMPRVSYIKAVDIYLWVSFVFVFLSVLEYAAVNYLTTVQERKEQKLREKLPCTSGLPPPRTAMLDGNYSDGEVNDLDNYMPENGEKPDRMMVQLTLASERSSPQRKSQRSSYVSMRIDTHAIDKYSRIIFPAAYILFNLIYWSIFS
T2 sequence (P24046 22-479): as above
Chain of GABAC (ρ2) receptor (P28476 21-465): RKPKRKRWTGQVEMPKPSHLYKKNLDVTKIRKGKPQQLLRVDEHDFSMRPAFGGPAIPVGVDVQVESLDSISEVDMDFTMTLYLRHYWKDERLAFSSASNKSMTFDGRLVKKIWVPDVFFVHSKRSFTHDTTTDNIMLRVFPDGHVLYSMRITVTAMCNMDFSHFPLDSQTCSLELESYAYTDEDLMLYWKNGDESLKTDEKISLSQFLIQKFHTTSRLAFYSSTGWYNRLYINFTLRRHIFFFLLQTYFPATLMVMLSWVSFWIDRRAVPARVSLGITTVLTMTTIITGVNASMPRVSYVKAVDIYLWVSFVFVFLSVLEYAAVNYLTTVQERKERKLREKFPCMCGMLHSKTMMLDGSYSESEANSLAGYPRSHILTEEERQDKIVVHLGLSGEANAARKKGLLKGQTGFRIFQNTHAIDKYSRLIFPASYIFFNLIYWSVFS
Chain of GABAA (α2β2γ2s) receptor (P47869 29-451): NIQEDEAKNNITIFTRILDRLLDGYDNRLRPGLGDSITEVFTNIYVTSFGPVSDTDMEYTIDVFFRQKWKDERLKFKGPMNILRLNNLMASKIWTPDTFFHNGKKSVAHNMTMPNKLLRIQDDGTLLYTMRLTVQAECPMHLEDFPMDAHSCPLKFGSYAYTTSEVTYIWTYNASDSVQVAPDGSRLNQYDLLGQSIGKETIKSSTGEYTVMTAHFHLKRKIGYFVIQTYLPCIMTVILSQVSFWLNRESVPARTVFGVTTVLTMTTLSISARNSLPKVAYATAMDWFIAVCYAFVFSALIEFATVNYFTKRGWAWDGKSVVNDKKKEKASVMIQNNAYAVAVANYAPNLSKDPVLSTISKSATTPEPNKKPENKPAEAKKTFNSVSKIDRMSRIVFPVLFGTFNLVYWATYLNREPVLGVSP
Chain of GABAA (α2β2γ2s) receptor (P47870 25-512 limits assumed): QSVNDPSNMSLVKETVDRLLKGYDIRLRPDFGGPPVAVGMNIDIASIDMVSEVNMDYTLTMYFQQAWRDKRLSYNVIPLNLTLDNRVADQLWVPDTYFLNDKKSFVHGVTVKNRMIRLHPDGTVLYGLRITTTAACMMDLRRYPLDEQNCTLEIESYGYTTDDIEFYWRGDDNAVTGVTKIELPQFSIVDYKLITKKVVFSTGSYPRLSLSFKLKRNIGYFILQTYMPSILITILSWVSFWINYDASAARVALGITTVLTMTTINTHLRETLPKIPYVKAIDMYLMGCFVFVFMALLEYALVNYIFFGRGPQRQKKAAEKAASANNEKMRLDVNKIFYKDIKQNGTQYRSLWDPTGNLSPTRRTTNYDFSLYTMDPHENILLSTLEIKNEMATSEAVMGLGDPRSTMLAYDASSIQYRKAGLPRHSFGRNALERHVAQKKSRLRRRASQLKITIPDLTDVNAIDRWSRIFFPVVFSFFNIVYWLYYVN
Chain of GABAA (α2β2γ2s) receptor (P18507 40-467 isoform P18507-1 partner limits assumed): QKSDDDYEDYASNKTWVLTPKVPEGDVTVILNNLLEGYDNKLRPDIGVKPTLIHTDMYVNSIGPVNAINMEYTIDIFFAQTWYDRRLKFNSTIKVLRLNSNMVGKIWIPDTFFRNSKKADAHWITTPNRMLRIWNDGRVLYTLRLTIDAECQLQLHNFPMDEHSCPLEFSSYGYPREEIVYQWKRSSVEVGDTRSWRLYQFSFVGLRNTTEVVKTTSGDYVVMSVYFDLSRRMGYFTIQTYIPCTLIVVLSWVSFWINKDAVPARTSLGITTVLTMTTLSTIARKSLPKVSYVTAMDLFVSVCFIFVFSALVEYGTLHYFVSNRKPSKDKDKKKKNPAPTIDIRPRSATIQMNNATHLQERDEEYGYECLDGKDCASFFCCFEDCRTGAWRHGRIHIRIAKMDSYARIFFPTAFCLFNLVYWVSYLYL

Compound: CP(=O)(O)CCCN [CGP35024, (3-aminopropyl)methylphosphinc acid]
- Kb (GABAC receptors): 0.8 µM

- current response to GABA alone (GABAC (ρ1) receptor; GABA 1 μM): 105 nA
- current response to GABA alone (GABAC (ρ1) receptor; GABA 10 μM): 142 nA
- Hill coefficient (nH) for GABA alone (GABAC (ρ1) receptor; GABA dose-response curve): 1.9±0.3
- current response to GABA alone (GABAC (ρ2) receptor; GABA 1 μM): 23 nA
- current response to GABA alone (GABAC (ρ2) receptor; GABA 100 μM): 35 nA
- current response to GABA alone (GABAC (ρ3) receptor): 880 nA
- current response to GABA alone (GABAA (α2β2γ2s) receptor; GABA 3 μM): 65 nA
- current response to GABA alone (GABAA (α2β2γ2s) receptor; GABA 300 μM): 1180 nA
Compound: NCCCC(=O)O [GABA, γ-Aminobutyric acid, reference compound]

Compound: CP(=O)(O)C1=CCNCC1 [TPMPA]
- selectivity for GABAC than GABAA receptors (GABAC receptor [1]): 100 times
- selectivity for GABAC than GABAB receptors (GABAC receptor [1]): 500 times
- reduction of the current produced by GABA (10 μM) (GABAA receptors [2]): 67%
- activation of the GABAB receptor (GABAB receptor [3]): about 30%

Compound: (±)-cis-(3-Aminocyclopentanyl)methylphosphinic acid [(±)-cis-3-ACPMPA]
- GABAA antagonist activity in words (GABAA receptors [4]): very weak activity as antagonists
- reduction of the current produced by GABA (10 μM) (GABAA receptors [4]): 8%
- selectivity for GABAC than GABAA receptors (GABAC receptor [5]): more than 100 times
- selectivity for GABAC than GABAB receptors (GABAC receptor [5]): 50 times
- times more potent than (±)-cis-3-ACPBPA at the GABAC receptors (GABAC receptor [5]): 12 times
- times more potent than TPMPA (GABAC receptor [5]): 2 times
- Kb (GABAC receptor [5]): 1 µM
- GABAB agonist activity in words (GABAB receptor [6]): moderately potent GABAB receptor agonists
- EC50 (GABAB receptor [6]): 50 µM

Compound: (±)-trans-(3-Aminocyclopentanyl)methylphosphinic acid [(±)-trans-3-ACPMPA]
- GABAA antagonist activity in words (GABAA receptors [4]): very weak activity as antagonists
- reduction of the current produced by GABA (10 μM) (GABAA receptors [4]): 11%
- selectivity for GABAC than GABAA receptors (GABAC receptor [5]): 45 times
- selectivity for GABAC than GABAB receptors (GABAC receptor [5]): 24 times
- times less potent than TPMPA (GABAC receptor [5]): 3 times
- Kb (GABAC receptor [5]): 6.6 µM
- GABAB agonist activity in words (GABAB receptor [6]): moderately potent GABAB receptor agonists
- EC50 (GABAB receptor [6]): 160 µM
